This passage reports GI50 and TGI results from PubChem BioAssay (NCI).

Test systems include A549 NSCLC; HOP-92 NSCLC; MDA-MB-231 breast; NCI-H23 lung; OVCAR-8 ovarian; RPMI-8226 leukemia; RXF 393 renal; UO-31 renal.
Common to all, as to experiment: inhibition of tumour cell growth, NCI panel, 48 h

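Each compound was tested at five concentrations against cells in 96-well plates for 48 hours. Abbreviation: GI50, concentration required for 50% inhibition of growth. Definition used: TGI = concentration required for complete inhibition of growth.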

As for `Cc1cc2c(C(N)=O)c(N)n(-c3c(C)ccc(O)c3C)c2nc1C`, the GI50 in the experiment with A549 NSCLC is 4.53 µM; with HOP-92 NSCLC, 1 µM; in the experiment with MDA-MB-231 breast, 2.12 µM; in the experiment on NCI-H23 lung, 1.25 µM; in the experiment on OVCAR-8 ovarian it was 3.12 µM; in the experiment on RPMI-8226 leukemia, 3.48 µM. Besides, the GI50 with RXF 393 renal was 0.12 µM; in the experiment on UO-31 renal, 3.18 µM. The TGI in the experiment on A549 NSCLC was 47.4 µM; with HOP-92 NSCLC, 14.1 µM; in the experiment on MDA-MB-231 breast it was 13.9 µM; in the experiment with NCI-H23 lung, 4.16 µM; with OVCAR-8 ovarian, 18 µM; in the experiment with RPMI-8226 leukemia it was above 100 µM. Also, the figures for the TGI in the experiment with RXF 393 renal and in the experiment on UO-31 renal were 0.855 µM and 14.9 µM, respectively.

Regarding `O=C1OC(=O)C2CCCC3CCCC1C32` (stereo not given), the TGI in the experiment with A549 NSCLC, in the experiment with HOP-92 NSCLC, in the experiment with MDA-MB-231 breast, in the experiment with NCI-H23 lung, in the experiment with OVCAR-8 ovarian and in the experiment on RPMI-8226 leukemia was above 100 µM each time. In addition, the TGI with RXF 393 renal and with UO-31 renal was above 100 µM each time.

Regarding `CC1=C(C(=O)Nc2cc(Cl)c3[nH]ncc3c2)C(c2ccc(C(F)(F)F)cc2)CC(=O)N1` (stereo not given), the GI50 was above 25 µM with A549 NSCLC; 0.145 µM in the experiment on HOP-92 NSCLC; 13.7 µM with MDA-MB-231 breast; above 25 µM in the experiment on NCI-H23 lung; above 25 µM in the experiment on OVCAR-8 ovarian; 24.9 µM in the experiment with RPMI-8226 leukemia. In addition, the results for the GI50 in the experiment with RXF 393 renal and in the experiment with UO-31 renal were 2.37 µM and 2 µM, respectively. For the same compound, the TGI in the experiment on A549 NSCLC, in the experiment with HOP-92 NSCLC, with MDA-MB-231 breast, in the experiment with NCI-H23 lung, with OVCAR-8 ovarian and in the experiment with RPMI-8226 leukemia was above 25 µM in each case. Further, the TGI in the experiment on RXF 393 renal and with UO-31 renal was above 25 µM in each case.

As to `Cc1ccc(NC(=O)CSc2nnc3n(Cc4ccccc4)c(=O)c4c(C)c(C(N)=O)sc4n23)cc1`, the GI50 was above 100 µM with A549 NSCLC; 2.57 µM in the experiment with HOP-92 NSCLC; 3.44 µM in the experiment with MDA-MB-231 breast; 17.3 µM in the experiment with NCI-H23 lung; above 100 µM in the experiment with OVCAR-8 ovarian; above 100 µM in the experiment on RPMI-8226 leukemia. Moreover, the results for the GI50 in the experiment with RXF 393 renal and with UO-31 renal were 6.88 µM and above 100 µM, respectively. The TGI is above 100 µM in the experiment on A549 NSCLC; 12.2 µM in the experiment with HOP-92 NSCLC; 58.8 µM with MDA-MB-231 breast; above 100 µM with NCI-H23 lung; above 100 µM with OVCAR-8 ovarian; above 100 µM in the experiment on RPMI-8226 leukemia. Moreover, the TGI was 39 µM with RXF 393 renal and above 100 µM in the experiment on UO-31 renal.

Regarding `CCn1c(-c2nonc2N)nc2c(C#CC(C)(C)O)ncc(OC[C@H]3CCCNC3)c21`, the GI50 is 15.6 µM in the experiment with A549 NSCLC; 9.73 µM in the experiment with HOP-92 NSCLC; 17.8 µM in the experiment on MDA-MB-231 breast; 23.5 µM in the experiment on NCI-H23 lung; 16.1 µM in the experiment on OVCAR-8 ovarian; 17.4 µM in the experiment on RPMI-8226 leukemia. The values for the GI50 in the experiment on RXF 393 renal and with UO-31 renal were 0.228 µM and above 38.7 µM, respectively. Besides, the TGI with A549 NSCLC was 62.3 µM; in the experiment on HOP-92 NSCLC, 36.8 µM; in the experiment on MDA-MB-231 breast it was 55.6 µM; in the experiment with NCI-H23 lung, above 96 µM; in the experiment with OVCAR-8 ovarian, 82.2 µM; in the experiment with RPMI-8226 leukemia, 50.5 µM. For the same compound, the TGI in the experiment with RXF 393 renal is 11.6 µM; with UO-31 renal, above 100 µM.

With `CSC(=S)OC1CC(n2cnc3c(NC(=O)c4ccccc4)ncnc32)OC1CO[Si](C)(C)C(C)(C)C` (stereo not given), the TGI with A549 NSCLC is above 100 µM; in the experiment with HOP-92 NSCLC it was 44.4 µM; in the experiment with MDA-MB-231 breast, above 46.4 µM; in the experiment on NCI-H23 lung, above 56.2 µM; in the experiment with OVCAR-8 ovarian, above 56.2 µM; in the experiment with RPMI-8226 leukemia, 43 µM. In addition, the TGI in the experiment with RXF 393 renal is above 65.8 µM; in the experiment with UO-31 renal, 28 µM.

For `Cc1ccc(C(=O)/C(=C\c2ccc([N+](=O)[O-])cc2)S(=O)Cc2ccc(Cl)cc2)cc1` (stereo not given), the GI50 in the experiment on A549 NSCLC is 3.05 µM; in the experiment on HOP-92 NSCLC, 1.64 µM; in the experiment on MDA-MB-231 breast, 1.86 µM; in the experiment with NCI-H23 lung, 1.83 µM; in the experiment on OVCAR-8 ovarian, 2.05 µM; in the experiment on RPMI-8226 leukemia it was 1.29 µM. In addition, the GI50 is 1.65 µM in the experiment on RXF 393 renal and 1.41 µM in the experiment on UO-31 renal. In addition, the TGI in the experiment with A549 NSCLC was found to be 11 µM; in the experiment on HOP-92 NSCLC, 3.45 µM; in the experiment on MDA-MB-231 breast, 3.88 µM; in the experiment with NCI-H23 lung, 3.89 µM; in the experiment on OVCAR-8 ovarian, 5.13 µM; with RPMI-8226 leukemia, 4.62 µM. Moreover, the TGI was found to be 3.1 µM in the experiment on RXF 393 renal and 2.78 µM with UO-31 renal.

Consider `C/C(=C\c1cc(C(F)(F)F)n(-c2ccc(N)cc2)n1)[C@@H]1C[C@@H]2O[C@]2(C)CCC[C@H](C)[C@H](O)[C@@H](C)C(=O)C(C)(C)[C@@H](O)CC(=O)O1`, for which the GI50 was 0.0489 µM with A549 NSCLC; 0.258 µM in the experiment on HOP-92 NSCLC; 0.137 µM in the experiment with MDA-MB-231 breast; 0.0829 µM in the experiment on NCI-H23 lung; 0.0557 µM in the experiment with OVCAR-8 ovarian; below 0.0106 µM with RPMI-8226 leukemia. The figures for the GI50 in the experiment with RXF 393 renal and in the experiment with UO-31 renal were 0.032 µM and 0.0791 µM, respectively. In addition, the TGI in the experiment on A549 NSCLC, in the experiment on HOP-92 NSCLC, in the experiment on MDA-MB-231 breast, with NCI-H23 lung, in the experiment on OVCAR-8 ovarian and in the experiment with RPMI-8226 leukemia was above 11.1 µM each time. Besides, the TGI with RXF 393 renal was 0.379 µM; with UO-31 renal, above 11.1 µM.

With `CCc1ccc(C(=Nc2ccc(N(C)C(=O)CN3CCN(C)CC3)cc2)c2c(O)[nH]c3ccc(C(=O)OC)cc23)cc1`, the GI50 was 0.319 µM in the experiment on A549 NSCLC; 1.23 µM in the experiment with HOP-92 NSCLC; 0.585 µM in the experiment with MDA-MB-231 breast; 0.417 µM in the experiment on NCI-H23 lung; 0.772 µM in the experiment on OVCAR-8 ovarian; 0.424 µM in the experiment on RPMI-8226 leukemia. Also, the GI50 with RXF 393 renal was 0.22 µM; in the experiment with UO-31 renal, 0.287 µM. Besides, the TGI with A549 NSCLC amounted to 1.64 µM; in the experiment on HOP-92 NSCLC, 2.63 µM; with MDA-MB-231 breast it was 2.09 µM; in the experiment on NCI-H23 lung it was 2.03 µM; in the experiment with OVCAR-8 ovarian, 3.21 µM; in the experiment on RPMI-8226 leukemia, 1.67 µM. Further, the TGI in the experiment with RXF 393 renal is 1.2 µM; with UO-31 renal it was 1.36 µM.

On to `NS(=O)(=O)CC1CC[CH-]CC1.[Cl-].[Cl-].[Cl-].[Cl-].[Cl-].[Sb+5].c1ccncc1`, for which the GI50 in the experiment with A549 NSCLC, in the experiment with HOP-92 NSCLC, in the experiment with MDA-MB-231 breast, in the experiment on NCI-H23 lung, in the experiment on OVCAR-8 ovarian and in the experiment on RPMI-8226 leukemia was above 100 µM throughout. Moreover, the GI50 in the experiment on RXF 393 renal and in the experiment with UO-31 renal was above 100 µM in each case. The TGI in the experiment on A549 NSCLC, in the experiment on HOP-92 NSCLC, with MDA-MB-231 breast, with NCI-H23 lung, in the experiment on OVCAR-8 ovarian and with RPMI-8226 leukemia was above 100 µM each time. For the same compound, the TGI in the experiment with RXF 393 renal and with UO-31 renal was above 100 µM in each case.

For `CC([C@H]1CCC2C3CCC4C[C@@H](N)CC[C@]4(C)C3CC[C@@]21C)N(C)C` (stereo not given in full), the GI50 with A549 NSCLC is 8.45 µM; in the experiment with HOP-92 NSCLC it was 4.53 µM; in the experiment with MDA-MB-231 breast, 5.72 µM; in the experiment with NCI-H23 lung, 13.8 µM; with OVCAR-8 ovarian, 15.7 µM; with RPMI-8226 leukemia, 3.04 µM. Besides, the GI50 with RXF 393 renal was 4.55 µM; in the experiment with UO-31 renal it was 2.34 µM. Also, the TGI in the experiment with A549 NSCLC is 24.7 µM; in the experiment with HOP-92 NSCLC it was 25.9 µM; in the experiment with MDA-MB-231 breast it was 16.5 µM; in the experiment with NCI-H23 lung, 37.2 µM; in the experiment with OVCAR-8 ovarian it was above 53.6 µM; in the experiment on RPMI-8226 leukemia it was 11.7 µM. Besides, the TGI came to 14.9 µM in the experiment with RXF 393 renal and 7.74 µM in the experiment with UO-31 renal.

With `C=C1C(=O)O[C@H]2[C@H]1CC/C(COC(=O)C(C)c1ccc(CC(C)C)cc1)=C\CC[C@@]1(C)O[C@@H]21` (stereo not given in full), the GI50 is 1.8 µM in the experiment on A549 NSCLC; 0.747 µM in the experiment with HOP-92 NSCLC; 1.38 µM in the experiment with MDA-MB-231 breast; 1.77 µM with NCI-H23 lung; 1.32 µM with OVCAR-8 ovarian; 0.278 µM in the experiment with RPMI-8226 leukemia. Further, the GI50 is 1.38 µM in the experiment with RXF 393 renal and 1.28 µM with UO-31 renal. Moreover, the TGI is 3.65 µM in the experiment with A549 NSCLC; 2.14 µM in the experiment with HOP-92 NSCLC; 2.73 µM with MDA-MB-231 breast; 3.92 µM in the experiment with NCI-H23 lung; 3.51 µM in the experiment on OVCAR-8 ovarian; 1.19 µM in the experiment with RPMI-8226 leukemia. Further, the TGI came to 2.75 µM in the experiment with RXF 393 renal and 2.54 µM in the experiment on UO-31 renal.

For `O=C1C2CCN(CC2)C1(CO)CO`, the TGI in the experiment with A549 NSCLC was above 100 µM; with HOP-92 NSCLC, 46.6 µM; in the experiment on MDA-MB-231 breast, 44 µM; with NCI-H23 lung, 61.9 µM; in the experiment with OVCAR-8 ovarian, 74.7 µM; with RPMI-8226 leukemia, 43.4 µM. Further, the values for the TGI in the experiment on RXF 393 renal and in the experiment with UO-31 renal were 52 µM and 34.1 µM, respectively.

Take `O=[N+]([O-])c1cc(C(F)(F)F)ccc1Sc1ccc(C(F)(F)F)cc1[N+](=O)[O-]`: the GI50 in the experiment on A549 NSCLC was 24.9 µM; in the experiment with HOP-92 NSCLC, 7.96 µM; in the experiment with MDA-MB-231 breast it was 5.1 µM; in the experiment on NCI-H23 lung it was 4.62 µM; with OVCAR-8 ovarian it was 6.1 µM; in the experiment on RPMI-8226 leukemia it was 6.69 µM. Further, the results for the GI50 with RXF 393 renal and in the experiment with UO-31 renal were 11.4 µM and 34.8 µM, respectively. Besides, the TGI with A549 NSCLC, in the experiment with HOP-92 NSCLC, in the experiment on MDA-MB-231 breast, with NCI-H23 lung, in the experiment on OVCAR-8 ovarian and with RPMI-8226 leukemia was above 100 µM each time. Besides, the TGI in the experiment with RXF 393 renal and in the experiment on UO-31 renal was above 100 µM each time.
